Results published in ChEMBL document CHEMBL4387773, “Identification of potent, selective and orally bioavailable phenyl ((R)-3-phenylpyrrolidin-3-yl)sulfone analogues as RORγt inverse agonists” (Bioorg Med Chem Lett, 2019).

Molecular target: T1, PXR (Homo sapiens, UniProt O75469)
T1 sequence (O75469 whole entry): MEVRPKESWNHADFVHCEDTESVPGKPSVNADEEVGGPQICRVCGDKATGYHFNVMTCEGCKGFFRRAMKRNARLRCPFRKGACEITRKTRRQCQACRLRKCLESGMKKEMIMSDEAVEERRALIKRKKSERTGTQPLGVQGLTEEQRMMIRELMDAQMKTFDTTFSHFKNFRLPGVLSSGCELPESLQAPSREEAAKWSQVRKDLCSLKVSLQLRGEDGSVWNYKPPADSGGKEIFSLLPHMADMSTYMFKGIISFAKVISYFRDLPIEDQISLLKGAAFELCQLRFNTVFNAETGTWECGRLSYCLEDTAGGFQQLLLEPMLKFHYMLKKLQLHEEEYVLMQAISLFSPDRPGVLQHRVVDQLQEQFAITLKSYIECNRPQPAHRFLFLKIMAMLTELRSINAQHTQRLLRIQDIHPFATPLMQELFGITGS
Assay: Transactivation of PXR (unknown origin) expressed in human HepG2 cells assessed as maximum receptor activation response relative to control
Assay type: cell-based
Details: human HepG2 cells that express PXR, read-out: %max

Row | Emax [%] | SMILES
1 | 32 | CCC1(C(=O)N2CC[C@](c3ccc(C(F)(C(F)(F)F)C(F)(F)F)cc3)(S(=O)(=O)c3ccc(F)cc3)C2)CCS(=O)(=O)CC1
2 | 94 | CO[C@]1(C(=O)N2CC[C@](c3ccc(C(F)(C(F)(F)F)C(F)(F)F)cc3)(S(=O)(=O)c3ccc(F)cc3)C2)CC[C@H](C(=O)O)CC1
3 | 49 | O=C(C1CCS(=O)(=O)C1)N1CC[C@](c2ccc(C(F)(C(F)(F)F)C(F)(F)F)cc2)(S(=O)(=O)c2ccc(F)cc2)C1 (stereo in doubt; 32)
4 | 69 | O=C([C@H]1CC[C@@](F)(C(=O)O)CC1)N1CC[C@](c2ccc(C(F)(C(F)(F)F)C(F)(F)F)cc2)(S(=O)(=O)c2ccc(F)cc2)C1

Molecular target: T2, Nuclear receptor ROR-beta (Homo sapiens, UniProt Q92753)
T2 sequence (Q92753 whole entry): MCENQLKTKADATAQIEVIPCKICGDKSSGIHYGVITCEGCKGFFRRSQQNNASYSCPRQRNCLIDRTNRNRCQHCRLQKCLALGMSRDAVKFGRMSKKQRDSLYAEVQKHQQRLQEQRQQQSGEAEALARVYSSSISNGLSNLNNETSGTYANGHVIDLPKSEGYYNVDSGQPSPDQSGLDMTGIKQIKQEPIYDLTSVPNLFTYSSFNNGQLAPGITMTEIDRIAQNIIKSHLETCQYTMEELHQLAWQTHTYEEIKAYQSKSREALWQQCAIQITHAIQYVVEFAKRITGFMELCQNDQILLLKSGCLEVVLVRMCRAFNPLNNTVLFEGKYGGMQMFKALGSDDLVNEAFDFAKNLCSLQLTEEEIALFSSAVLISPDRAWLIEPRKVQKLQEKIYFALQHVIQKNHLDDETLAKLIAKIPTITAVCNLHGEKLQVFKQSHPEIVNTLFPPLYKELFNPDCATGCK
Assay: Inverse agonist activity at human Gal4-fused RORbeta LBD (200 to 559 residues) expressed in human Jurkat cells measured after 18 hrs by steady-glo luciferase reporter gene assay
Assay type: cell-based
Details: not given

Row | EC50 [µM] | SMILES
5 | > 40 | CCC1(C(=O)N2CC[C@](c3ccc(C(F)(C(F)(F)F)C(F)(F)F)cc3)(S(=O)(=O)c3ccc(F)cc3)C2)CCS(=O)(=O)CC1
6 | > 40 | CO[C@]1(C(=O)N2CC[C@](c3ccc(C(F)(C(F)(F)F)C(F)(F)F)cc3)(S(=O)(=O)c3ccc(F)cc3)C2)CC[C@H](C(=O)O)CC1
7 | > 40 | O=C(C1CCS(=O)(=O)C1)N1CC[C@](c2ccc(C(F)(C(F)(F)F)C(F)(F)F)cc2)(S(=O)(=O)c2ccc(F)cc2)C1 (stereo in doubt; 32)
8 | > 40 | O=C([C@H]1CC[C@@](F)(C(=O)O)CC1)N1CC[C@](c2ccc(C(F)(C(F)(F)F)C(F)(F)F)cc2)(S(=O)(=O)c2ccc(F)cc2)C1

Tested on: not listed separately
Assay: Stability in human liver microsomes assessed as parent compound remaining after 10 mins
Assay type: ADME, Microsome
Details: liver microsomes, read-out: Stability

Row | remaining at 10 min [%] | SMILES
9 | 3 | CCC1(C(=O)N2CC[C@](c3ccc(C(F)(C(F)(F)F)C(F)(F)F)cc3)(S(=O)(=O)c3ccc(F)cc3)C2)CCS(=O)(=O)CC1
10 | 82 | CO[C@]1(C(=O)N2CC[C@](c3ccc(C(F)(C(F)(F)F)C(F)(F)F)cc3)(S(=O)(=O)c3ccc(F)cc3)C2)CC[C@H](C(=O)O)CC1
11 | 100 | O=C(C1CCS(=O)(=O)C1)N1CC[C@](c2ccc(C(F)(C(F)(F)F)C(F)(F)F)cc2)(S(=O)(=O)c2ccc(F)cc2)C1 (stereo in doubt; 32)
12 | 82 | O=C([C@H]1CC[C@@](F)(C(=O)O)CC1)N1CC[C@](c2ccc(C(F)(C(F)(F)F)C(F)(F)F)cc2)(S(=O)(=O)c2ccc(F)cc2)C1

Molecular target: T3, Oxysterols receptor LXR-alpha (Homo sapiens, UniProt Q13133)
T3 sequence (Q13133 whole entry): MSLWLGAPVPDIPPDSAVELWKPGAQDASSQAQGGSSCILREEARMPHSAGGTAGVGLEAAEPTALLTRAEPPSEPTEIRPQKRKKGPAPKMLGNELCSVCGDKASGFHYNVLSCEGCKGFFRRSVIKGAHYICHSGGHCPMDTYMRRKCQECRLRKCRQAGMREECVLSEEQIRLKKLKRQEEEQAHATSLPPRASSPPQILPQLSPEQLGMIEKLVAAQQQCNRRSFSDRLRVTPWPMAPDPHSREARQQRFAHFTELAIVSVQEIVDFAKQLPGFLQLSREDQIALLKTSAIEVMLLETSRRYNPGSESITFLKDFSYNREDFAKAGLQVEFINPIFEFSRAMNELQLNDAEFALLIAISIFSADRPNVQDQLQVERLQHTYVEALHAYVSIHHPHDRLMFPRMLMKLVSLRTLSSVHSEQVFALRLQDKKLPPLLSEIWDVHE
Assay: Transactivation of human GAL4-fused LXRalpha expressed in African green monkey CV1 cells
Assay type: cell-based
Details: not given

Row | EC50 [µM] | SMILES
13 | > 7.5 | CCC1(C(=O)N2CC[C@](c3ccc(C(F)(C(F)(F)F)C(F)(F)F)cc3)(S(=O)(=O)c3ccc(F)cc3)C2)CCS(=O)(=O)CC1
14 | > 7.5 | CO[C@]1(C(=O)N2CC[C@](c3ccc(C(F)(C(F)(F)F)C(F)(F)F)cc3)(S(=O)(=O)c3ccc(F)cc3)C2)CC[C@H](C(=O)O)CC1
15 | > 7.5 | O=C(C1CCS(=O)(=O)C1)N1CC[C@](c2ccc(C(F)(C(F)(F)F)C(F)(F)F)cc2)(S(=O)(=O)c2ccc(F)cc2)C1 (stereo in doubt; 32)
16 | > 7.5 | O=C([C@H]1CC[C@@](F)(C(=O)O)CC1)N1CC[C@](c2ccc(C(F)(C(F)(F)F)C(F)(F)F)cc2)(S(=O)(=O)c2ccc(F)cc2)C1

Molecular target: T4, Nuclear receptor subfamily 1 group I member 2 (Homo sapiens, UniProt O75469)
T4 sequence (O75469 whole entry): T1 sequence (O75469 whole entry)
Assay: Transactivation of PXR (unknown origin) expressed in human HepG2 cells
Assay type: cell-based
Details: not given

Row | EC50 [µM] | SMILES
17 | 5.2 | CCC1(C(=O)N2CC[C@](c3ccc(C(F)(C(F)(F)F)C(F)(F)F)cc3)(S(=O)(=O)c3ccc(F)cc3)C2)CCS(=O)(=O)CC1
18 | > 18 | CO[C@]1(C(=O)N2CC[C@](c3ccc(C(F)(C(F)(F)F)C(F)(F)F)cc3)(S(=O)(=O)c3ccc(F)cc3)C2)CC[C@H](C(=O)O)CC1
19 | > 13 | O=C(C1CCS(=O)(=O)C1)N1CC[C@](c2ccc(C(F)(C(F)(F)F)C(F)(F)F)cc2)(S(=O)(=O)c2ccc(F)cc2)C1 (stereo in doubt; 32)
20 | > 22 | O=C([C@H]1CC[C@@](F)(C(=O)O)CC1)N1CC[C@](c2ccc(C(F)(C(F)(F)F)C(F)(F)F)cc2)(S(=O)(=O)c2ccc(F)cc2)C1

Molecular target: T5, Nuclear receptor ROR-alpha (Homo sapiens, UniProt P35398)
T5 sequence (P35398 whole entry): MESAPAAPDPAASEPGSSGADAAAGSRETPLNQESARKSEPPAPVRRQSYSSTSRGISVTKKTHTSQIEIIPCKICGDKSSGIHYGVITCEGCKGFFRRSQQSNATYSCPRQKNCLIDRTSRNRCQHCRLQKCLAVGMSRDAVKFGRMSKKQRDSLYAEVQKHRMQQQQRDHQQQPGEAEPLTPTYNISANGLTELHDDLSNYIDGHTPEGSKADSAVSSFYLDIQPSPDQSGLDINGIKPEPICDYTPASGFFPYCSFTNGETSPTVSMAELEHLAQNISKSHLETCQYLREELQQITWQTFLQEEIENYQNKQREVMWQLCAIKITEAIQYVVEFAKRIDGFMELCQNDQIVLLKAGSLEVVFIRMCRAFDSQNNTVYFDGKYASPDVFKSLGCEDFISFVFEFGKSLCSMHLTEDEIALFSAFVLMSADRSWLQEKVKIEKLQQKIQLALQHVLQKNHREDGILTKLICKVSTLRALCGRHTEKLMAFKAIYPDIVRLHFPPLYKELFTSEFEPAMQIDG
Assay: Inverse agonist activity at human Gal4-fused RORalpha LBD (272 to 556 residues) expressed in human Jurkat cells measured after 18 hrs by steady-glo luciferase reporter gene assay
Assay type: cell-based
Details: not given

Row | EC50 [µM] | SMILES
21 | > 40 | CCC1(C(=O)N2CC[C@](c3ccc(C(F)(C(F)(F)F)C(F)(F)F)cc3)(S(=O)(=O)c3ccc(F)cc3)C2)CCS(=O)(=O)CC1
22 | > 40 | CO[C@]1(C(=O)N2CC[C@](c3ccc(C(F)(C(F)(F)F)C(F)(F)F)cc3)(S(=O)(=O)c3ccc(F)cc3)C2)CC[C@H](C(=O)O)CC1
23 | > 40 | O=C(C1CCS(=O)(=O)C1)N1CC[C@](c2ccc(C(F)(C(F)(F)F)C(F)(F)F)cc2)(S(=O)(=O)c2ccc(F)cc2)C1 (stereo in doubt; 32)
24 | > 40 | O=C([C@H]1CC[C@@](F)(C(=O)O)CC1)N1CC[C@](c2ccc(C(F)(C(F)(F)F)C(F)(F)F)cc2)(S(=O)(=O)c2ccc(F)cc2)C1

Tested on: not listed separately
Assay: Stability in mouse liver microsomes assessed as parent compound remaining after 10 mins
Assay type: ADME, Microsome
Details: liver microsomes, read-out: Stability

Row | remaining at 10 min [%] | SMILES
25 | 0 | CCC1(C(=O)N2CC[C@](c3ccc(C(F)(C(F)(F)F)C(F)(F)F)cc3)(S(=O)(=O)c3ccc(F)cc3)C2)CCS(=O)(=O)CC1
26 | 95 | CO[C@]1(C(=O)N2CC[C@](c3ccc(C(F)(C(F)(F)F)C(F)(F)F)cc3)(S(=O)(=O)c3ccc(F)cc3)C2)CC[C@H](C(=O)O)CC1
27 | 78 | O=C(C1CCS(=O)(=O)C1)N1CC[C@](c2ccc(C(F)(C(F)(F)F)C(F)(F)F)cc2)(S(=O)(=O)c2ccc(F)cc2)C1 (stereo in doubt; 32)
28 | 94 | O=C([C@H]1CC[C@@](F)(C(=O)O)CC1)N1CC[C@](c2ccc(C(F)(C(F)(F)F)C(F)(F)F)cc2)(S(=O)(=O)c2ccc(F)cc2)C1

Molecular target: T6, Oxysterols receptor LXR-beta (Homo sapiens, UniProt P55055)
T6 sequence (P55055 whole entry): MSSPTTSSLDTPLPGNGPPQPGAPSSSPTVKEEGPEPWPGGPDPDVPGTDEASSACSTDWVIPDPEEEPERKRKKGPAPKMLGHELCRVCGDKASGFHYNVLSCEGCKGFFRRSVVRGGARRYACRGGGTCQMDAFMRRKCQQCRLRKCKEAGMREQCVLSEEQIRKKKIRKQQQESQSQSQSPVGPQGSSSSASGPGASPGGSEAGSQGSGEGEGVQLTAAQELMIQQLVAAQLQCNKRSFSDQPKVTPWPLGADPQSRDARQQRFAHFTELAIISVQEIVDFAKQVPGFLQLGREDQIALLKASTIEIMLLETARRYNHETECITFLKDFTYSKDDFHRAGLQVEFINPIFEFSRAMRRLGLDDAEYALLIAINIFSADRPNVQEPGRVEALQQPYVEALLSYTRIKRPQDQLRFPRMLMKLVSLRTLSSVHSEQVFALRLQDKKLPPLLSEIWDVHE
Assay: Transactivation of human GAL4-fused LXRbeta expressed in African green monkey CV1 cells
Assay type: cell-based
Details: not given

Row | EC50 [µM] | SMILES
29 | > 7.5 | CCC1(C(=O)N2CC[C@](c3ccc(C(F)(C(F)(F)F)C(F)(F)F)cc3)(S(=O)(=O)c3ccc(F)cc3)C2)CCS(=O)(=O)CC1
30 | > 7.5 | CO[C@]1(C(=O)N2CC[C@](c3ccc(C(F)(C(F)(F)F)C(F)(F)F)cc3)(S(=O)(=O)c3ccc(F)cc3)C2)CC[C@H](C(=O)O)CC1
31 | > 7.5 | O=C(C1CCS(=O)(=O)C1)N1CC[C@](c2ccc(C(F)(C(F)(F)F)C(F)(F)F)cc2)(S(=O)(=O)c2ccc(F)cc2)C1 (stereo in doubt; 32)
32 | > 7.5 | O=C([C@H]1CC[C@@](F)(C(=O)O)CC1)N1CC[C@](c2ccc(C(F)(C(F)(F)F)C(F)(F)F)cc2)(S(=O)(=O)c2ccc(F)cc2)C1
